{"source": "patent US20260055083A1", "about": "“APOL1 INHIBITORS AND METHODS OF USE” (Maze Therapeutics, Inc., priority 2022, published 2026)", "key": {"APOL1 G2 [1]": {"target": "T1, APOL1 G2 (Homo sapiens, UniProt O14791, DEL388-389)", "T1 construct": "expressed in transfected cells; host or cells: HEK293/T-REx APOL1 G2 clone #2, doxycycline-inducible", "T1 sequence (O14791 with tags, fused parts or gaps DEL388-389)": "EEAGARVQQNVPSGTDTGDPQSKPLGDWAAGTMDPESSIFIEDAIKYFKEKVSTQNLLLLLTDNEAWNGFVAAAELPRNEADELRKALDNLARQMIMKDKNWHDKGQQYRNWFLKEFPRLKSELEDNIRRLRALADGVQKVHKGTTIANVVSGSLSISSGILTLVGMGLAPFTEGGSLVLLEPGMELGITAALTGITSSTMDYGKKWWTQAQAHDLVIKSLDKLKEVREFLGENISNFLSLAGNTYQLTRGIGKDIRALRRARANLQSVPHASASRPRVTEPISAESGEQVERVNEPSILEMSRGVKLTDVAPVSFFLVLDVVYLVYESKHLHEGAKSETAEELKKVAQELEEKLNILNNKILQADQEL", "test": "APOL1 G2 HEK293 rescue of cell death caused by overexpression of APOL1 (CellTiter-Glo)", "type": "cell-based", "settings": "HEK293/T-REx APOL1 G2 clone #2, doxycycline induction, 17 hours, CellTiter-Glo luminescence; reversal of cell death; geometric mean of at least 2 assay runs", "method_in_brief": "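Viability read by CellTiter-Glo luminescence after 17 h, 37 °C, in HEK293/T-REx cells expressing APOL1 G2 on 6 ng/mL doxycycline, 5,000 cells/well. Compounds tested as duplicate 8-point, 3-fold dilutions, 0.5% DMSO final; four-parameter logistic EC50, usually geometric mean of ≥2 days.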"}, "APOL1 G2 [2]": {"target": "T1, APOL1 G2", "test": "APOL1 G2 FLIPR calcium influx assay (HEK T-REx/GCaMP6f/APOL1 G2 K6.3 cells)", "type": "cell-based", "settings": "HEK293 clone expressing GCaMP6f, doxycycline-induced APOL1 G2; prevention of calcium influx; geometric mean of at least 2 assay runs", "method_in_brief": "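Cells express GCaMP6f stably and APOL1 G2 after a 6 h doxycycline induction. Duplicate 8-point dilutions sit 10 min at room temperature in Ca2+-free Tyrode's (pH 7.4), then Ca2+ is injected to 5 mM final and the FLIPR signal recorded. AC50s are geometric means across ≥2 days.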"}}, "data": [{"smiles": "C[C@@H]1C[C@H](COc2ccc(S(C)(=O)=O)cc2)CN1C1CCc2ccc(C#N)cc2C1", "note": "(single isomer, unassigned) [Compound 137, (7R or 7S)-7-[(2R,4S)-4-[(4-methanesulfonylphenoxy)methyl]-2-methylpyrrolidin-1-yl]-5,6,7,8-tetrahydronaphthalene-2-carbonitrile]", "values": [{"measurement": "EC50", "setting": "APOL1 G2 [1]", "value": 35.8, "unit": "nM"}, {"measurement": "AC50", "setting": "APOL1 G2 [2]", "value": 222, "unit": "nM"}]}, {"smiles": "Cc1cc(OC[C@@H]2CN(CCc3cccc(C#N)c3)C[C@H]2C)ccc1S(C)(=O)=O", "note": "[Compound 83, 3-{2-[(3S,4S)-3-[(4-methanesulfonyl-3-methylphenoxy)methyl]-4-methylpyrrolidin-1-yl]ethyl}benzonitrile]", "values": [{"measurement": "EC50", "setting": "APOL1 G2 [1]", "value": 94.3, "unit": "nM"}, {"measurement": "AC50", "setting": "APOL1 G2 [2]", "value": 94.6, "unit": "nM"}]}, {"smiles": "C[C@@H]1CN(CCc2cc(Cl)cc(C#N)c2)C[C@H]1COc1cc(F)c(S(C)(=O)=O)c(F)c1", "note": "[Compound 82, 3-chloro-5-{2-[(3S,4S)-3-[(3,5-difluoro-4-methanesulfonylphenoxy)methyl]-4-methylpyrrolidin-1-yl]ethyl}benzonitrile]", "values": [{"measurement": "EC50", "setting": "APOL1 G2 [1]", "value": 165, "unit": "nM"}, {"measurement": "AC50", "setting": "APOL1 G2 [2]", "value": 370, "unit": "nM"}]}, {"smiles": "CC(C(O)c1cc(Cl)cc(C#N)c1)N1C[C@@H](COc2ccc(S(C)(=O)=O)cc2)[C@H](C)C1", "note": "(single isomer, unassigned) [Compound 103, 3-chloro-5-((1S,2S or 1R,2R)-1-hydroxy-2-((3S,4S)-3-methyl-4-((4-(methylsulfonyl)phenoxy)methyl)pyrrolidin-1-yl)propyl)benzonitrile]", "values": [{"measurement": "EC50", "setting": "APOL1 G2 [1]", "value": 655, "unit": "nM"}, {"measurement": "AC50", "setting": "APOL1 G2 [2]", "value": 905, "unit": "nM"}]}, {"smiles": "C[C@@H]1C[C@H](COc2ccc(S(=O)(=O)CCCS(C)(=O)=O)cc2)CN1C1CCc2ccc(Cl)cc2C1", "note": "(single isomer, unassigned) [Compound 54, (2R,4S)-1-[(2S or 2R)-7-chloro-1,2,3,4-tetrahydronaphthalen-2-yl]-4-{[4-(3-methanesulfonylpropanesulfonyl)phenoxy]methyl}-2-methylpyrrolidine]", "values": [{"measurement": "EC50", "setting": "APOL1 G2 [1]", "value": 54.8, "unit": "nM"}, {"measurement": "AC50", "setting": "APOL1 G2 [2]", "value": 857, "unit": "nM"}]}, {"smiles": "C[C@@H]1CN(CC(O)c2cccc(C#N)c2)C[C@H]1COc1ccc(S(C)(=O)=O)nc1", "note": "(stereo partly drawn) [Compound 104, 3-{1-hydroxy-2-[(3S,4S)-3-{[(6-methanesulfonylpyridin-3-yl)oxy]methyl}-4-methylpyrrolidin-1-yl]ethyl}benzonitrile]", "values": [{"measurement": "EC50", "setting": "APOL1 G2 [1]", "value": 1010, "unit": "nM"}, {"measurement": "AC50", "setting": "APOL1 G2 [2]", "value": 700, "unit": "nM"}]}, {"smiles": "C[C@@H]1C[C@H](COc2ccc(S(C)(=O)=O)nc2)CN1CCc1cc(Cl)cc(C#N)c1", "note": "[Compound 65, 3-chloro-5-{2-[(2R,4S)-4-{[(6-methanesulfonylpyridin-3-yl)oxy]methyl}-2-methylpyrrolidin-1-yl]ethyl}benzonitrile]", "values": [{"measurement": "EC50", "setting": "APOL1 G2 [1]", "value": 49.8, "unit": "nM"}, {"measurement": "AC50", "setting": "APOL1 G2 [2]", "value": 346, "unit": "nM"}]}, {"smiles": "Cc1cc(OC[C@H]2C[C@@H](C)N(CCc3cccc(C#N)c3)C2)cnc1S(C)(=O)=O", "note": "(single isomer, unassigned) [Compound 30]", "values": [{"measurement": "EC50", "setting": "APOL1 G2 [1]", "value": 38.4, "unit": "nM"}, {"measurement": "AC50", "setting": "APOL1 G2 [2]", "value": 185, "unit": "nM"}]}, {"smiles": "CS(=O)(=O)c1ccc(OCC2C[C@@H](CO)N(CCc3cccc(Cl)c3)C2)cc1", "note": "(single isomer, unassigned) [Compound 123, [(2S,4S or 4R)-1-[2-(3-chlorophenyl)ethyl]-4-[(4-methanesulfonylphenoxy)methyl]pyrrolidin-2-yl]methanol]", "values": [{"measurement": "EC50", "setting": "APOL1 G2 [1]", "value": 393, "unit": "nM"}, {"measurement": "AC50", "setting": "APOL1 G2 [2]", "value": 201, "unit": "nM"}]}, {"smiles": "C[C@@H]1CN(C(CO)Cc2cc(Cl)cc(C#N)c2)C[C@H]1COc1ccc(S(C)(=O)=O)cc1", "note": "(stereo partly drawn) [Compound 120, 3-chloro-5-[3-hydroxy-2-[(3S,4S)-3-[(4-methanesulfonylphenoxy)methyl]-4-methylpyrrolidin-1-yl]propyl]benzonitrile]", "values": [{"measurement": "EC50", "setting": "APOL1 G2 [1]", "value": 1040, "unit": "nM"}, {"measurement": "AC50", "setting": "APOL1 G2 [2]", "value": 480, "unit": "nM"}]}, {"smiles": "C[C@@H]1C[C@@H](COc2ccc(S(C)(=O)=O)cc2)CN1CCc1cccc(Cl)c1", "note": "[Compound 145, (2R,4R)-1-[2-(3-chlorophenyl)ethyl]-4-[(4-methanesulfonylphenoxy)methyl]-2-methylpyrrolidine]", "values": [{"measurement": "EC50", "setting": "APOL1 G2 [1]", "value": 1770, "unit": "nM"}, {"measurement": "AC50", "setting": "APOL1 G2 [2]", "value": 1130, "unit": "nM"}]}, {"smiles": "C[C@@H]1CN(C(CO)Cc2cccc(Cl)c2)C[C@H]1COc1ccc(S(C)(=O)=O)cc1", "note": "(single isomer, unassigned) [Compound 117, (2S or 2R)-3-(3-chlorophenyl)-2-[(3S,4S)-3-[(4-methanesulfonylphenoxy)methyl]-4-methylpyrrolidin-1-yl]propan-1-ol]", "values": [{"measurement": "EC50", "setting": "APOL1 G2 [1]", "value": 755, "unit": "nM"}, {"measurement": "AC50", "setting": "APOL1 G2 [2]", "value": 483, "unit": "nM"}]}, {"smiles": "C[C@@H]1C[C@H](COc2ccc(S(C)(=O)=O)cc2)CN1C1CCc2c(C#N)cc(Cl)cc2C1", "note": "(single isomer, unassigned) [Compound 7, (6R or 6S)-3-chloro-6-[(2R,4S)-4-[(4-methanesulfonylphenoxy)methyl]-2-methylpyrrolidin-1-yl]-5,6,7,8-tetrahydronaphthalene-1-carbonitrile]", "values": [{"measurement": "EC50", "setting": "APOL1 G2 [1]", "value": 195, "unit": "nM"}, {"measurement": "AC50", "setting": "APOL1 G2 [2]", "value": 1540, "unit": "nM"}]}, {"smiles": "C[C@@H]1C[C@H](COc2ccc(S(=O)(=O)CCCS(C)(=O)=O)cc2)CN1C1CCc2c(C#N)cc(Cl)cc2C1", "note": "(stereo partly drawn) [Compound 43, 3-chloro-6-[(2R,4S)-4-{[4-(3-methanesulfonylpropanesulfonyl)phenoxy]methyl}-2-methylpyrrolidin-1-yl]-5,6,7,8-tetrahydronaphthalene-1-carbonitrile]", "values": [{"measurement": "EC50", "setting": "APOL1 G2 [1]", "value": 350, "unit": "nM"}, {"measurement": "AC50", "setting": "APOL1 G2 [2]", "value": 1360, "unit": "nM"}]}, {"smiles": "C[C@@H]1C[C@H](COc2ccc(S(=O)(=O)CCCS(C)(=O)=O)cc2)CN1C1CCc2c(C#N)cc(Cl)cc2C1", "note": "(single isomer, unassigned) [Compound 45, (6S or 6R)-3-chloro-6-[(2R,4S)-4-{[4-(3-methanesulfonylpropanesulfonyl)phenoxy]methyl}-2-methylpyrrolidin-1-yl]-5,6,7,8-tetrahydronaphthalene-1-carbonitrile]", "values": [{"measurement": "EC50", "setting": "APOL1 G2 [1]", "value": 300, "unit": "nM"}, {"measurement": "AC50", "setting": "APOL1 G2 [2]", "value": 998, "unit": "nM"}]}, {"smiles": "CS(=O)(=O)c1ccc(OC[C@@H]2CN(CCc3cc(Cl)cc(C#N)c3)C[C@H]2CO)cc1", "note": "[Compound 24, 3-chloro-5-{2-[(3S,4S)-3-(hydroxymethyl)-4-[(4-methanesulfonylphenoxy)methyl]pyrrolidin-1-yl]ethyl}benzonitrile]", "values": [{"measurement": "EC50", "setting": "APOL1 G2 [1]", "value": 410, "unit": "nM"}, {"measurement": "AC50", "setting": "APOL1 G2 [2]", "value": 310, "unit": "nM"}]}, {"smiles": "CC(c1ccc(OC[C@@H]2CN(CCc3cccc(Cl)c3)CCN2)cc1)S(C)(=O)=O", "note": "(stereo partly drawn) [Compound 140, (3S)-1-[2-(3-chlorophenyl)ethyl]-3-{[4-(1-methanesulfonylethyl)phenoxy]methyl}piperazine]", "values": [{"measurement": "EC50", "setting": "APOL1 G2 [1]", "value": 756, "unit": "nM"}, {"measurement": "AC50", "setting": "APOL1 G2 [2]", "value": 379, "unit": "nM"}]}, {"smiles": "C[C@@H]1CN(CCc2cc(Cl)cc(C#N)c2)C[C@H]1COc1ccc(S(=O)(=O)C2(C)COC2)cc1", "note": "[Compound 13, 3-chloro-5-{2-[(3S,4S)-3-methyl-4-({4-[(3-methyloxetan-3-yl)sulfonyl]phenoxy}methyl)pyrrolidin-1-yl]ethyl}benzonitrile]", "values": [{"measurement": "EC50", "setting": "APOL1 G2 [1]", "value": 41.4, "unit": "nM"}, {"measurement": "AC50", "setting": "APOL1 G2 [2]", "value": 290, "unit": "nM"}]}, {"smiles": "C[C@@H]1C[C@H](COc2ccc(S(=O)(=O)CCCS(C)(=O)=O)cc2)CN1C1CCc2c(C#N)cccc2C1", "note": "(single isomer, unassigned) [Compound 41, (6S or 6R)-6-[(2R,4S)-4-{[4-(3-methanesulfonylpropanesulfonyl)phenoxy]methyl}-2-methylpyrrolidin-1-yl]-5,6,7,8-tetrahydronaphthalene-1-carbonitrile]", "values": [{"measurement": "EC50", "setting": "APOL1 G2 [1]", "value": 62.8, "unit": "nM"}, {"measurement": "AC50", "setting": "APOL1 G2 [2]", "value": 1180, "unit": "nM"}]}, {"smiles": "CS(=O)(=O)c1ccc(OC[C@@H]2CCCN(C3CCc4ccc(Cl)cc4C3)C2)cc1", "note": "(stereo partly drawn) [Compound 131, (3R)-1-(7-chloro-1,2,3,4-tetrahydronaphthalen-2-yl)-3-[(4-methanesulfonylphenoxy)methyl]piperidine]", "values": [{"measurement": "EC50", "setting": "APOL1 G2 [1]", "value": 994, "unit": "nM"}, {"measurement": "AC50", "setting": "APOL1 G2 [2]", "value": "< 229", "unit": "nM"}]}]}
